Test results taken from patent US7351744B2, “Naphthalene derivatives as termite repellents and toxicants” (Board of Supervisors of Louisiana State University and …, priority 2003, dated 2008).

Key:
[1] = tested on: C. formosanus workers and soldiers; assay: Topical application toxicity assay; type: in vivo, Coptotermes formosanus
Experimental: Dose-mortality data were analyzed using probit analysis as adapted for PC use (POLO-PC), which automatically corrected for control mortality using Abbott's transformation. See, e.g., R. M Russell et al., “POLO: a new computer program for probit analysis,” Bull. Entomol. Soc. Am., vol. 23, pp. 209-213 (1977); and LeOra Software, “POLO-PC, a user's guide to probit analysis or logit analysis” (1987). The LD50s of workers and soldiers from four tested colonies (y) were plotted against the average weight of tested termites (x) to establish a linear regression equation and conduct correlation analyses. Mean survival, food consumption and tunnel areas were compared among treatments using analysis of variance (ANOVA), followed by least significant difference procedures. See, SAS Institute, SAS/STAT User's Guide: version 8, SAS Institute, Inc., Cary, N.C. (1999). In two-choice assays using either treated filter paper or treated sand, the parameters measured in the two lateral sides of each treatment were compared using paired t-tests. All data were judged at α=0.05.
Acute toxicity of 2′-acetonaphthone was bioassayed using doses that ranged from 1.25 to 20 ug/termite. At stock solution of 2′-acetonaphthone was prepared ([…]). Dilutions were made by taking aliquots from the stock solution (62.5, 125, 250, 375, 500, 750, and 1000 μl), and adjusting each volume to 2 ml with acetone. A group of 20 workers or soldiers (from colonies BS, WB, E and CR) were placed in a Petri dish (6 cm×1.5 cm) and chilled on top of an ice brick (30.32 cm×17.78 cm×3.81 cm; IceBerg, Mid-Lands Chemical Company, Inc., Miami, Fla.) to slow their movement. Each termite was treated with a topical dose in 0.2 μl acetone to the dorsum of the mesothorax using a Hamilton PB 600 Repeating Dispenser equipped with a 10 μl syringe (Hamilton, Reno, Nev.). The experimental termites were treated with doses equivalent to 1.25, 2.50, 5.0, 7.5, 10.0, 15.0, and 20.0 μg/termite. Control termites were dosedwith only 0.2 μl acetone. Five replicates, each with 20 workers or 20 soldiers, were used for each dose and control. For each replicate, termites were maintained in a plastic container (5.5 cm×3.7 cm, Pioneer Pckaging Co., North Dixon, Ky.), each provided with a filter paper (Whatman #2, 55 mm diameter) wetted with 250 μl double distilled water (DDH20). The containers were covered with lids, and kept for 2 days at room temperature (26-28° C.). Daily mortality in each dish was recorded. Termites were considered dead if unable to right themselves when prodded with a fine paint brush.

[2] = tested on: C. formosanus workers and soldiers; assay: Treated wood slices as sole food source; type: in vivo, Coptotermes formosanus; details: colonies C and WB combined
Experimental: To assay the effect of 2′-acetonaphthone on termites when added to a sole food source, acute and cumulative toxicities of 2′-acetonaphthone-treated filter paper (Whatman #2) and balsa wood (Ochroma lagopus Swartz) slices (2.3 cm×4.0 cm) were evaluated. Seven concentrations (0, 1, 10, 50, 100, 500, and 1000 mg/l) were prepared in 100 ml ethanol. Six filter papers and six wood slices were soaked in each concentration for 4 h; control filter papers and wood slices were soaked only in ethanol. After treatment, the food sources were kept overnight at ambient conditions for solvent evaporation. Eighty-four plastic containers (5.5 cm diameter×3.7 cm height) were provided with 22 g of wetted sand (20 g sand (fine blasting sand #4, Cement Products Inc., Baton Rouge, La.) mixed with 2 ml DDH2O). Then either a filter paper or a wood slice was separately placed to fit on the surface of the wetted sand and wetted with DDH2O (250 μl). Into each container, fifty workers and 20 soldiers were placed on the surface of the filter paper or wood slice. For each concentration and food sourse, three replicates received termites from colony C, and three replicates received termites from colony WB. The containers were covered and incubated for 10 days at 27.4° C. and 70% RH. Containers were monitored everytwo days to ensure suitable moisture. On days 1, 5 and 10, the number of living workers and soldiers were counted. An average percent survival was calculated for each treatment. (See Tables 2 and 3).

CC(=O)c1ccc2ccccc2c1 [2′-acetonaphthone]
LD50 (95% CL) ([1]; colony BS, 24 hours, Soldier): 3.24 (2.27-4.24) μg/termite | LD90 (95% CL) ([1]; colony BS, 24 hours, Soldier): 13.60 (8.86-15.01) μg/termite | LD50 (95% CL) ([1]; colony BS, 24 hours, Worker): 2.21 (1.91-2.49) μg/termite | LD90 (95% CL) ([1]; colony BS, 24 hours, Worker): 7.11 (6.14-8.58) μg/termite | LD50 (95% CL) ([1]; colony BS, 48 hours, Soldier): 2.02 (1.49-2.46) μg/termite | LD90 (95% CL) ([1]; colony BS, 48 hours, Soldier): 4.07 (3.37-5.37) μg/termite | LD50 (95% CL) ([1]; colony BS, 48 hours, Worker): 1.74 (1.49-1.96) μg/termite | LD90 (95% CL) ([1]; colony BS, 48 hours, Worker): 4.19 (3.73-4.83) μg/termite | LD50 (95% CL) ([1]; colony CR, 24 hours, Soldier): 3.49 (2.49-4.51) μg/termite | LD90 (95% CL) ([1]; colony CR, 24 hours, Soldier): 8.09 (5.94-16.01) μg/termite | LD50 (95% CL) ([1]; colony CR, 24 hours, Worker): 2.93 (2.24-3.59) μg/termite | LD90 (95% CL) ([1]; colony CR, 24 hours, Worker): 7.23 (5.59-11.34) μg/termite | LD50 (95% CL) ([1]; colony CR, 48 hours, Soldier): 2.02 (1.48-2.48) μg/termite | LD90 (95% CL) ([1]; colony CR, 48 hours, Soldier): 4.26 (3.45-5.92) μg/termite | LD50 (95% CL) ([1]; colony CR, 48 hours, Worker): 2.67 (1.87-3.35) μg/termite | LD90 (95% CL) ([1]; colony CR, 48 hours, Worker): 6.09 (4.85-8.82) μg/termite | LD50 (95% CL) ([1]; colony E, 24 hours, Soldier): 5.12 (3.99-7.24) μg/termite | LD90 (95% CL) ([1]; colony E, 24 hours, Soldier): 14.06 (9.51-19.26) μg/termite | LD50 (95% CL) ([1]; colony E, 24 hours, Worker): 7.24 (5.22-9.36) μg/termite | LD90 (95% CL) ([1]; colony E, 24 hours, Worker): 19.69 (14.02-25.58) μg/termite | LD50 (95% CL) ([1]; colony E, 48 hours, Soldier): 4.19 (3.14-6.20) μg/termite | LD90 (95% CL) ([1]; colony E, 48 hours, Soldier): 12.32 (8.23-15.32) μg/termite | LD50 (95% CL) ([1]; colony E, 48 hours, Worker): 3.82 (2.68-5.83) μg/termite | LD90 (95% CL) ([1]; colony E, 48 hours, Worker): 11.77 (7.66-17.79) μg/termite | LD50 (95% CL) ([1]; colony WB, 24 hours, Soldier): 2.16 (0.56-6.23) μg/termite | LD90 (95% CL) ([1]; colony WB, 24 hours, Soldier): 5.48 (1.42-15.81) μg/termite | LD50 (95% CL) ([1]; colony WB, 24 hours, Worker): 1.75 (0.76-2.76) μg/termite | LD90 (95% CL) ([1]; colony WB, 24 hours, Worker): 6.33 (3.71-12.46) μg/termite | LD50 (95% CL) ([1]; colony WB, 48 hours, Soldier): 2.17 (0.49-5.76) μg/termite | LD90 (95% CL) ([1]; colony WB, 48 hours, Soldier): 5.59 (1.23-14.49) μg/termite | LD50 (95% CL) ([1]; colony WB, 48 hours, Worker): 1.71 (0.42-1.95) μg/termite | LD90 (95% CL) ([1]; colony WB, 48 hours, Worker): 3.09 (2.70-3.72) μg/termite | 48 h-LD90 ([1]; soldiers, range over the four colonies): 4.07-12.32 μg/soldier | Percent survival ([2]; wood slices 1 mg/l, Day 1, Soldier): 93.33 ± 1.67 a % | Percent survival ([2]; wood slices 1 mg/l, Day 1, Worker): 85.0 ± 5.29 a % | Percent survival ([2]; wood slices 1 mg/l, Day 5, Soldier): 60.0 ± 13.54 a % | Percent survival ([2]; wood slices 1 mg/l, Day 5, Worker): 55.33 ± 12.87 a % | Percent survival ([2]; wood slices 1 mg/l, Day 10, Soldier): 47.50 ± 11.61 a % | Percent survival ([2]; wood slices 1 mg/l, Day 10, Worker): 52.67 ± 12.55 a % | Percent survival ([2]; wood slices 10 mg/l, Day 1, Soldier): 86.67 ± 4.41 a % | Percent survival ([2]; wood slices 10 mg/l, Day 1, Worker): 83.33 ± 5.03 a % | Percent survival ([2]; wood slices 10 mg/l, Day 5, Soldier): 54.17 ± 11.14 a % | Percent survival ([2]; wood slices 10 mg/l, Day 5, Worker): 63.67 ± 11.13 a % | Percent survival ([2]; wood slices 10 mg/l, Day 10, Soldier): 46.67 ± 12.36 a % | Percent survival ([2]; wood slices 10 mg/l, Day 10, Worker): 50.67 ± 8.79 a % | Percent survival ([2]; wood slices 50 mg/l, Day 1, Soldier): 85.0 ± 5.0 a % | Percent survival ([2]; wood slices 50 mg/l, Day 1, Worker): 86.67 ± 5.26 a % | Percent survival ([2]; wood slices 50 mg/l, Day 5, Soldier): 48.33 ± 10.38 a % | Percent survival ([2]; wood slices 50 mg/l, Day 5, Worker): 65.0 ± 13.51 a % | Percent survival ([2]; wood slices 50 mg/l, Day 10, Soldier): 39.17 ± 8.41 a % | Percent survival ([2]; wood slices 50 mg/l, Day 10, Worker): 49.67 ± 10.23 a % | Percent survival ([2]; wood slices 100 mg/l, Day 1, Soldier): 90.0 ± 2.89 a % | Percent survival ([2]; wood slices 100 mg/l, Day 1, Worker): 88.67 ± 3.33 a % | Percent survival ([2]; wood slices 100 mg/l, Day 5, Soldier): 55.83 ± 11.94 a % | Percent survival ([2]; wood slices 100 mg/l, Day 5, Worker): 56.67 ± 12.15 a % | Percent survival ([2]; wood slices 100 mg/l, Day 10, Soldier): 45.0 ± 9.58 a % | Percent survival ([2]; wood slices 100 mg/l, Day 10, Worker): 47.67 ± 10.97 a % | Percent survival ([2]; wood slices 500 mg/l, Day 1, Soldier): 80.83 ± 10.44 a % | Percent survival ([2]; wood slices 500 mg/l, Day 1, Worker): 84.67 ± 2.41 a % | Percent survival ([2]; wood slices 500 mg/l, Day 5, Soldier): 17.50 ± 7.61 b % | Percent survival ([2]; wood slices 500 mg/l, Day 5, Worker): 54.33 ± 8.01 a % | Percent survival ([2]; wood slices 500 mg/l, Day 10, Soldier): 4.17 ± 2.38 b % | Percent survival ([2]; wood slices 500 mg/l, Day 10, Worker): 30.67 ± 9.18 a % | Percent survival ([2]; wood slices 1000 mg/l, Day 1, Soldier): 84.17 ± 7.24 a % | Percent survival ([2]; wood slices 1000 mg/l, Day 1, Worker): 86.67 ± 3.53 a % | Percent survival ([2]; wood slices 1000 mg/l, Day 5, Soldier): 2.50 ± 2.49 b % | Percent survival ([2]; wood slices 1000 mg/l, Day 5, Worker): 13.0 ± 9.85 b % | Percent survival ([2]; wood slices 1000 mg/l, Day 10, Soldier): 0.0 ± 0.0 b % | Percent survival ([2]; wood slices 1000 mg/l, Day 10, Worker): 5.67 ± 4.27 b %
